The results in this text go back to paper PMC3199943, “Screening the MayBridge Rule of 3 Fragment Library for Compounds That Interact with the Trypanosoma brucei myo-Inositol-3-Phosphate Synthase and/or Show Trypanocidal Activity” (Molecular Biology International, 2011).

The subject of one assay is A549 cells. Description: Cytotoxicity against A549 cells, Alamar Blue. The class given is cell-based. Conditions: Supplementary Table 1, compound 0.5 mM, percentage of controls (n=1); for viability at 500 µM: Homo sapiens, A549, 65 h. The method, then: (§1) Cytotoxic effects against HeLa and A549 cells were determined in a similar manner. Briefly, the cells were cultured in DMEM supplemented with 10% FCS and 2 mM L-Glutamine. Cells were plated at initial cell concentration of 2 × 10^4 cells/well and incubated with the compounds for ~65 hours prior to addition of Alamar Blue solution for a further 5 hours.
On the technique in general: Resazurin is reduced to fluorescent resorufin, in cell work by metabolically active cells.

In a further assay the test system is HeLa cells. The assay is described as follows: cells. The settings on record: for viability at 500 µM: 65 h, read-out: HeLa Cells Alamar Blue; for HeLa Cells Alamar Blue: Supplementary Table 1, compound 0.5 mM, percentage of controls, mean ± SD (n=3) or SE (n=2). The method, then:
as §1

Regarding `CC(=O)c1cccc(F)c1` [compound 125, 1‐(3‐fluorophenyl)ethan‐1‐one], the viability at 500 µM in the assay on A549 cells came out at 101%; with HeLa cells (Homo sapiens, HeLa), 83 ± 14.8%.
Taken in the same sequence, the figures for `O=C1N[C@@H](Cc2ccccc2)CO1` [compound 421, (S)‐4‐BENZYL‐2‐OXAZOLIDINONE] were 80.2% and 86 ± 5.1%.
For the molecule `OCc1ccc(-c2cncnc2)cc1` [compound 505, (4‐pyrimidin‐5‐ylphenyl)methanol], the viability at 500 µM in the assay with A549 cells stood at 85.3%; in the assay with HeLa cells (Homo sapiens, HeLa), 78.6 ± 20%.
Take `CC(=O)c1cc2cc(Cl)ccc2o1` [compound 589, 1‐(5‐chlorobenzo[b]furan‐2‐yl)ethan‐1‐one]: the “A549 Cells Alamar Blue” value in the assay on A549 cells was 99.5 percentage of controls. The “HeLa Cells Alamar Blue” value with HeLa cells is given as 95.8 ± 12.5 percentage of controls.
Regarding `Cc1cc(N)on1` [compound 10, 3‐methylisoxazol‐5‐amine], the viability at 500 µM with A549 cells amounted to 87.2%; with HeLa cells (Homo sapiens, HeLa) it was 66 ± 4.6%.
With `COc1ccccc1C1CCNCC1` [compound 560, 4‐(2‐methoxyphenyl)piperidine], the viability at 500 µM turned out to be 63.7% in the assay on A549 cells and 20.2 ± 2.8% in the assay with HeLa cells (Homo sapiens, HeLa).
Regarding `Nc1ccc2c(c1)OCCCO2` [compound 308, 3,4‐dihydro‐2H‐1,5‐benzodioxepin‐7‐amine], the “A549 Cells Alamar Blue” value in the assay with A549 cells is listed as 82.8 percentage of controls. The “HeLa Cells Alamar Blue” value with HeLa cells is 98.7 ± 6.1 percentage of controls.
With `CN1CCN(C)C(CO)C1` (centres unmarked) [compound 154, (1,4‐dimethyl‐2‐piperazinyl)methanol], the viability at 500 µM with A549 cells was 117%; with HeLa cells (Homo sapiens, HeLa), 96.9 ± 6.4%.
Taken in the same sequence, the figures for `OCc1csc2ccc(Cl)cc12` [compound 608, (5‐chloro‐1‐benzothiophen‐3‐yl)methanol] were 63.8% and 78.3 ± 1%.
With `OCC1CCOCC1` [compound 43, tetrahydro‐2H‐pyran‐4‐ylmethanol], the viability at 500 µM in the assay with A549 cells was 79.2%; in the assay on HeLa cells (Homo sapiens, HeLa), 91.9 ± 5.9%.
Take `CCCCc1nc(CO)c[nH]1` [compound 223, (2‐butyl‐1H‐imidazol‐4‐yl)methanol]: the viability at 500 µM came to 139% with A549 cells and 105 ± 13.7% with HeLa cells (Homo sapiens, HeLa).
Regarding `O=C(O)C1CC2CC1CCC2O` (centres unmarked) [compound 345, 2‐hydroxybicyclo[3.2.1]octane‐6‐carboxylic acid], the “A549 Cells Alamar Blue” value in the assay on A549 cells is recorded as 127 percentage of controls. The “HeLa Cells Alamar Blue” value in the assay on HeLa cells is on record as 87.4 ± 13 percentage of controls.
`NCc1ccc2sccc2c1` [compound 294, 1‐benzothiophen‐5‐ylmethylamine]: the viability at 500 µM in the assay on A549 cells was 70.6%; in the assay with HeLa cells (Homo sapiens, HeLa), 98.5 ± 13.1%.
In the same order, the values of `OCc1cccc(-c2ccncc2)c1` [compound 491, (3‐pyrid‐4‐ylphenyl)methanol] are 66.8% and 34.4 ± 13.8%.
For `CNCc1scc2c1OCCO2` [compound 495, N‐(2,3‐dihydrothieno[3,4‐b][1,4]dioxin‐5‐ylmethyl)‐N‐methylamine], the “A549 Cells Alamar Blue” value in the assay with A549 cells was 96.9 percentage of controls. For the same molecule, the “HeLa Cells Alamar Blue” value in the assay on HeLa cells is recorded as 43.6 ± 17.7 percentage of controls.
As for `Oc1nc2ccc(Cl)cc2o1` [compound 342, 6‐chloro‐1,3‐benzoxazol‐2‐ol], the viability at 500 µM stood at 73.9% with A549 cells and 94.3 ± 6.5% in the assay on HeLa cells (Homo sapiens, HeLa).
For `O=C(O)c1ccc(CN2CCCC2)cc1` [compound 665, 4‐(pyrrolidin‐1‐ylmethyl)benzoic acid], the viability at 500 µM with A549 cells is 104%; in the assay on HeLa cells (Homo sapiens, HeLa), 90.3 ± 6.3%.
In the same order, the values of `OCc1ccc(-c2cccnc2)cc1` [compound 489, (4‐pyrid‐3‐ylphenyl)methanol] are 131% and 66.4 ± 18.8%.
`NCc1cccc(-n2cccc2)c1` [compound 364, 3‐(1H‐pyrrol‐1‐yl)benzylamine]: the viability at 500 µM is 56.9% in the assay with A549 cells and 29.5 ± 12.9% with HeLa cells (Homo sapiens, HeLa). For the same molecule, in the assay on HeLa cells (Homo sapiens, HeLa, read-out: HeLa ED50), the CC50 was found to be 40.4 ± 1.8 µM.
In the case of `CN1CCN(c2ccc(N)cc2)CC1` [compound 562, 4‐(4‐methylpiperazino)aniline], the viability at 500 µM in the assay on A549 cells turned out to be 17.5%; in the assay on HeLa cells (Homo sapiens, HeLa), 8.2 ± 6.5%.
